# Results taken from US12336991B2, “Factor XIIA inhibitors” (UNIVERSITY OF LEEDS, priority 2018, dated 2025).
# Assays:
# Type in all cases: biochemical
# FXIIa = target: T1, FXIIa (Homo sapiens, UniProt P00748); experiment: Determination of Factor XIIa inhibition, chromogenic substrate S-2302 assay; details: human FXIIa alpha
# T1 sequence (P00748 373-615 limits assumed): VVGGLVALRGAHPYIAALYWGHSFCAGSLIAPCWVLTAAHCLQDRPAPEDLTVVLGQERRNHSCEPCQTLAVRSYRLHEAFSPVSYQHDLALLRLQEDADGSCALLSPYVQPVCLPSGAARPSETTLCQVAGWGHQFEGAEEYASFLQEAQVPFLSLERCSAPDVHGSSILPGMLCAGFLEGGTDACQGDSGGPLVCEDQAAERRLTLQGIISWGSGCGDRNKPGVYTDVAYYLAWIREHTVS
# T1 sequence (P00748 20-372 partner limits assumed): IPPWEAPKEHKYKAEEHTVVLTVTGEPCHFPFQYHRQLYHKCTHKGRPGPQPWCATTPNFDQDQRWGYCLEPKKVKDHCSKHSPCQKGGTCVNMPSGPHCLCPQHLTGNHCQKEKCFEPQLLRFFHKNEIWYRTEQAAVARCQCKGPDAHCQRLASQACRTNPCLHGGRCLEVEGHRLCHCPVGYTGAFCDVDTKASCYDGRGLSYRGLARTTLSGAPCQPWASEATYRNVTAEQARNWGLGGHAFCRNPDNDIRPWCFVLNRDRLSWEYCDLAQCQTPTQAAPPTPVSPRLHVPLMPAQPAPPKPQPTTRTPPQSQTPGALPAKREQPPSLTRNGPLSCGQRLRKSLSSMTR
# In short: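 FXIIa (10 nM) preincubated with compound 10 min at 37° C. in 50 mM Tris, 137 mM NaCl pH 7.4, 5% DMSO, top concentration 500 μM, then S-2302 added ([…]). Absorbance at 405 nm read kinetically for 3 h; IC50 from initial rates, converted to Ki by Cheng-Prusoff.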
# thrombin = target: T2, thrombin (Homo sapiens, UniProt P00734); experiment: Determination of selectivity: thrombin inhibition, chromogenic substrate GPR assay; details: fold selectivity for FXIIa over thrombin
# T2 construct: FXa (5 nM) and thrombin (5 nM)
# In short: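 Thrombin (5 nM) preincubated with compound 10 min at 37 °C in 50 mM Tris, 137 mM NaCl, pH 7.4, 5% DMSO, then GPR substrate ([…]) added. Absorbance at 405 nm read kinetically for 3 h; IC50 from initial rates, converted to Ki via Ki=IC50/(1+[S]/Km).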
# FXa = FXa (Homo sapiens, UniProt P00742); experiment: Determination of selectivity: FXa inhibition, chromogenic substrate S2765 assay; details: fold selectivity for FXIIa over FXa
# Sequence of FXa (P00742 235-488 limits assumed): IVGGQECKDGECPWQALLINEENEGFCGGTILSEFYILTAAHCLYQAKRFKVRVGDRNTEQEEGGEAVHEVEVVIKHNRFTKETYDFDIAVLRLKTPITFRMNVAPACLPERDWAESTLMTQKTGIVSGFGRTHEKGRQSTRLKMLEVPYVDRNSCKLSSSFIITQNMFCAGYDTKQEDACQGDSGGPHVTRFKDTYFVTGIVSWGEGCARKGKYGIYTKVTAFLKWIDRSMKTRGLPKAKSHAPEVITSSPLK
# Sequence of FXa (P00742 41-179 partner limits assumed): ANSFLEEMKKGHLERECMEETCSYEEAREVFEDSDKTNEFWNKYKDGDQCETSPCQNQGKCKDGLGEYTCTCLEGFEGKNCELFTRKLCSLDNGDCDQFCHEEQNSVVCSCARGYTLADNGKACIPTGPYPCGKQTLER
# In short: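 Human FXa (5 nM) preincubated with compound (top 500 μM, 5% DMSO) 10 min at 37 °C in 50 mM Tris, 137 mM NaCl pH 7.4, then S2765 ([…]) added; A405 kinetics over 3 h at 37 °C. IC50 from initial rates, converted to Ki via Cheng-Prusoff.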
Structure (SMILES),Ki (FXIIa) [nM],Thrombin (human)/FXIIa alpha (human) (thrombin),FXa (human)/FXIIa alpha (human) (FXa)
Cn1nc(Cl)c2cc(CNC(=O)[C@@H]3C[C@@H](Cc4ccncc4)CN3C(=O)[C@H](N)CCC(=O)N3CCCC3)ccc21 [Example M05241],< 200,++ (fold selectivity value of 10 to 100),∘∘∘
CN(C1CCCCC1)C1C[C@@H](C(=O)NCc2ccc3c(c2)nnn3C)N(C(=O)[C@H](N)CCc2ccccc2)C1 (stereo partly drawn) [Example M05242],> 2000,++ (fold selectivity value of 10 to 100),∘∘
Cn1nnc2cc(CNC(=O)[C@@H]3C[C@H](Nc4cnccn4)CN3C(=O)[C@H](N)CCC(=O)N3CCCC3)ccc21 [Example M05243],> 2000,++ (fold selectivity value of 10 to 100),∘∘
Cn1ncc2cc(CNC(=O)[C@@H]3C[C@@H](Cc4ccncc4)CN3C(=O)[C@H](N)CCC(=O)N3CCCC3)ccc21 [Example M05244],< 200,+++ (fold selectivity values greater than 100),∘∘∘
Cn1nnc2cc(CNC(=O)[C@@H]3C[C@@H](Cc4ccncc4)CN3C(=O)[C@@H](CCC(=O)N3CCCC3)NCCC(F)(F)F)ccc21 [Example M05262],> 2000,++ (fold selectivity value of 10 to 100),∘∘
Nc1nccc2cc(CNC(=O)[C@@H]3C[C@H](C(F)(F)F)CN3C(=O)[C@H](N)CCC(=O)N3CCCC3)ccc12 [Example M05265],200 to 2000,+ (fold selectivity values less than 10),∘
Nc1nccc2cc(CNC(=O)[C@@H]3C[C@@H](Cc4cccc(Cl)c4)CN3C(=O)[C@H](N)CCC(=O)N3CCCC3)ccc12 [Example M05266],200 to 2000,+ (fold selectivity values less than 10),∘∘
"Cn1nnc2cc(CNC(=O)[C@@H]3C[C@@H](Cc4ccncc4)CN3C(=O)[C@@H](CCC(=O)N3CCCC3)NC(=O)Cc3ccccc3)ccc21 [Example M05267, (2S,4R)-1-((R)-5-Oxo-2-phenylacetylamino-5-pyrrolidin-1-yl-pentanoyl)-4-pyridin-4-ylmethyl-pyrrolidine-2-carboxylic acid (1-methyl-1H-benzotriazol-5-ylmethyl)-amide]",> 2000,++ (fold selectivity value of 10 to 100),∘∘
Cn1nnc2cc(CNC(=O)[C@@H]3C[C@@H](Cc4ccncc4)CN3C(=O)[C@@H](CCC(=O)N3CCCC3)NS(C)(=O)=O)ccc21 [Example M05268],> 2000,+++ (fold selectivity values greater than 100),∘∘∘
Cn1nnc2cc(CNC(=O)[C@@H]3C[C@@H](Cc4ccncc4)CN3C(=O)[C@@H](CCC(=O)N3CCCC3)NCC(F)F)ccc21 [Example M05269],> 2000,++ (fold selectivity value of 10 to 100),∘∘
Cn1nnc2cc(CNC(=O)[C@@H]3C[C@@H](Cc4ccncc4)CN3C(=O)[C@@H](CCC(=O)N3CCCC3)NCC(F)(F)F)ccc21 [Example M05271],> 2000,++ (fold selectivity value of 10 to 100),∘∘
COc1ccc(C[C@@H]2C[C@@H](C(=O)NCc3ccc4c(c3)nnn4C)N(C(=O)[C@H](N)CCC(=O)N3CCCC3)C2)cc1 [Example M05272],< 200,+++ (fold selectivity values greater than 100),∘∘∘
Cn1nnc2cc(CNC(=O)[C@@H]3C[C@@H](Cc4cc(F)cc(F)c4)CN3C(=O)[C@H](N)CCC(=O)N3CCCC3)ccc21 [Example M05274],200 to 2000,+++ (fold selectivity values greater than 100),∘∘∘
Cc1nn(C)c2ccc(CNC(=O)[C@@H]3C[C@@H](Cc4ccncc4)CN3C(=O)[C@H](N)CCC(=O)N3CCCC3)cc12 [Example M05278],200 to 2000,++ (fold selectivity value of 10 to 100),∘∘∘
Cn1nnc2cc(CNC(=O)[C@@H]3C[C@H](C(F)(F)F)CN3C(=O)[C@H]3C[C@@H](c4ccccc4)CN3)ccc21 [Example M05280],> 2000,++ (fold selectivity value of 10 to 100),∘∘
Nc1nccc2cc(CNC(=O)[C@@H]3C[C@H](c4ccccc4)CN3C(=O)[C@H](N)CCC(=O)N3CCCC3)ccc12 [Example M05281],200 to 2000,++ (fold selectivity value of 10 to 100),∘
Nc1nccc2cc(CNC(=O)[C@@H]3C[C@@H](c4ccccc4)CN3C(=O)[C@H](N)CCC(=O)N3CCCC3)ccc12 [Example M05282],200 to 2000,++ (fold selectivity value of 10 to 100),∘
Cn1nnc2cc(CNC(=O)[C@@H]3C[C@@H](Cc4ccncc4)CN3C(=O)[C@H]3C[C@@H](c4ccccc4)CN3)ccc21 [Example M05288],> 2000,++ (fold selectivity value of 10 to 100),∘∘∘
COc1ccc(C[C@@H]2C[C@@H](C(=O)NCc3ccc4c(c3)nnn4C)N(C(=O)[C@H]3C[C@@H](c4ccccc4)CN3)C2)cc1 [Example M05289],200 to 2000,+++ (fold selectivity values greater than 100),∘∘∘
Cn1nnc2cc(CNC(=O)[C@@H]3C[C@@H](Cc4ccncc4)CN3C(=O)[C@@H](CCC(=O)N3CCCC3)NS(=O)(=O)c3ccccc3)ccc21 [Example M05290],> 2000,+++ (fold selectivity values greater than 100),∘∘
Cn1nnc2cc(CNC(=O)[C@@H]3C[C@@H](CC4CCCC4)CN3C(=O)[C@H](N)CCC(=O)N3CCCC3)ccc21 [Example M05291],200 to 2000,+++ (fold selectivity values greater than 100),∘∘∘
Cn1nnc2cc(CNC(=O)[C@@H]3C[C@H](CC4CCOCC4)CN3C(=O)[C@H](N)CCC(=O)N3CCCC3)ccc21 [Example M05293],> 2000,++ (fold selectivity value of 10 to 100),∘∘
Cn1nccc1C[C@H]1C[C@@H](C(=O)NCc2ccc3c(c2)nnn3C)N(C(=O)[C@H](N)CCC(=O)N2CCCC2)C1 [Example M05294],200 to 2000,++ (fold selectivity value of 10 to 100),∘∘∘
Cn1nnc2cc(CNC(=O)[C@@H]3CC(Cc4ccc(F)c(Cl)c4F)CN3C(=O)[C@H](N)CCC(=O)N3CCCC3)ccc21 (stereo partly drawn) [Example M05295],200 to 2000,+++ (fold selectivity values greater than 100),∘∘∘
Cn1nnc2cc(CNC(=O)[C@@H]3C[C@H](Cc4ccccn4)CN3C(=O)[C@H](N)CCC(=O)N3CCCC3)ccc21 [Example M05296],200 to 2000,+++ (fold selectivity values greater than 100),∘∘∘
